Measurements: US20100210649A1, “PYRIDAZINONES AND FURAN-CONTAINING COMPOUNDS” (Sloan-Kettering Institute for Cancer Research, priority 2006, published 2010)
Read-outs that look alike come from different tables or passages of the source.

What was measured:
Assay type in all cases: cell-based, human
H1975 = assay: Non Small Cell Lung Cancer proliferation assay (Alamar Blue reduction), H1975; conditions: primary screening, 10 μM compound in 1% DMSO (v/v); for inhibition at 10 µM: Homo sapiens, NCI-H1975
How it was run: (§1)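 Dose-response run: cells were counted, dispensed at 250 cells/well onto compound, incubated 48 hours at 37° C, then incubated with Alamar Blue for an additional 48 hours before fluorescence measurement. All wells held 1% DMSO final.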

H1650 = assay: Non Small Cell Lung Cancer proliferation assay (Alamar Blue reduction), H1650; conditions: primary screening, 10 μM compound in 1% DMSO (v/v); for inhibition at 10 µM: Homo sapiens, NCI-H1650
How it was run: as §1

H3255 = assay: Non Small Cell Lung Cancer proliferation assay (Alamar Blue reduction), H3255; conditions: primary screening, 10 μM compound in 1% DMSO (v/v); for inhibition at 10 µM: Homo sapiens, NCI-H3255
How it was run: as §1

H2030 = assay: Non Small Cell Lung Cancer proliferation assay (Alamar Blue reduction), H2030; conditions: primary screening, 10 μM compound in 1% DMSO (v/v); for inhibition at 10 µM: Homo sapiens, NCI-H2030
How it was run: as §1

[1] = H1975, read-out: PRIMARY HTS [%] H1975 (percentage inhibition)
[2] = H1650, read-out: PRIMARY HTS [%] H1650 (percentage inhibition)
[3] = H3255, read-out: PRIMARY HTS [%] H3255 (percentage inhibition)
[4] = H2030, read-out: PRIMARY HTS [%] H2030 (percentage inhibition)
[5] = read-out: percentage inhibition H1975
[6] = read-out: percentage inhibition H1650
[7] = read-out: percentage inhibition H3255
[8] = read-out: percentage inhibition H2030

SMILES	inhibition at 10 µM (H1975; [5]) [%]	inhibition at 10 µM (H1650; [6]) [%]	inhibition at 10 µM (H3255; [7]) [%]	inhibition at 10 µM (H2030; [8]) [%]	also measured
O=[N+]([O-])c1ccc(CN2CCN(Cc3ccccc3)CC2)o1 [compound 100507]	–	–	–	–	inhibition at 10 µM (H1975; [1]): -15%; inhibition at 10 µM (H1650; [2]): -3%; inhibition at 10 µM (H3255; [3]): 1%; inhibition at 10 µM (H2030; [4]): 7%
O=c1c(SCc2ccco2)c(SCc2ccco2)cnn1-c1ccccc1 [compound 195071]	77	71	82	9	–
Cc1ccc(C(=O)Nc2ccc(NC(=O)c3ccco3)cc2)c(C)c1 [compound 97216]	–	–	–	–	inhibition at 10 µM (H1975; [1]): -4%; inhibition at 10 µM (H1650; [2]): -1%; inhibition at 10 µM (H3255; [3]): 3%; inhibition at 10 µM (H2030; [4]): -4%
O=C(c1ccc([N+](=O)[O-])o1)N1CCc2ccccc21 [compound 100403]	–	–	–	–	inhibition at 10 µM (H1975; [1]): -13%; inhibition at 10 µM (H1650; [2]): -13%; inhibition at 10 µM (H3255; [3]): 2%; inhibition at 10 µM (H2030; [4]): 3%
O=C(Nc1ccc(N2CCN(C(=O)c3ccco3)CC2)cc1)c1ccco1 [compound 97253]	–	–	–	–	inhibition at 10 µM (H1975; [1]): -15%; inhibition at 10 µM (H1650; [2]): -2%; inhibition at 10 µM (H3255; [3]): -3%; inhibition at 10 µM (H2030; [4]): -5%
Cc1ccc(C(C)C)c(OCC(=O)Oc2ccc(=O)n(-c3ccccc3)n2)c1 [compound 228706]	-11	-16	-25	5	–
O=c1ccc(Oc2nc(N3CCCCC3)nc(N3CCCCC3)n2)nn1-c1ccccc1 [compound 196618]	-14	3	-33	12	–
CC(C)Oc1c(S)cnn(-c2ccccc2)c1=O [compound 213495]	-15	4	8	-5	–
COC(=O)NCCOc1cnn(-c2ccccc2)c(=O)c1 [compound 189493]	12	2	-25	-8	–
O=C(Nc1ccc(Cl)cc1O)c1ccco1 [compound 75072]	–	–	–	–	inhibition at 10 µM (H1975; [1]): 0%; inhibition at 10 µM (H1650; [2]): 13%; inhibition at 10 µM (H3255; [3]): 1%; inhibition at 10 µM (H2030; [4]): 5%
CSc1c(SCc2ccccc2)cnn(-c2ccccc2)c1=O [compound 182831]	5	-4	-18	-12	–
Cc1ccc([N+](=O)[O-])cc1NC(=O)c1ccco1 [compound 107911]	–	–	–	–	inhibition at 10 µM (H1975; [1]): -15%; inhibition at 10 µM (H1650; [2]): 8%; inhibition at 10 µM (H3255; [3]): 7%; inhibition at 10 µM (H2030; [4]): 2%
CN1CCN(c2cnn(-c3ccc(Cl)cc3)c(=O)c2Cl)CC1 [compound 194618]	-3	-15	-48	-6	–
O=C(COCCOc1cnn(-c2ccccc2)c(=O)c1Cl)c1ccccc1 [compound 199760]	-22	12	6	21	–
CCOC(=O)C(C)Oc1ccc(=O)n(-c2ccccc2)n1 (stereo not drawn) [compound 185423]	-9	16	23	3	–
COc1ccc(Sc2cnn(-c3ccccc3)c(=O)c2Cl)cc1 [compound 181862]	3	7	22	9	–
O=c1c(Cl)c(Cl)cnn1-c1ccc([N+](=O)[O-])cc1 [compound 103529]	97	-13	1	15	–
Cc1cccc(-n2ncc(SCc3ccccc3)c(SCc3ccccc3)c2=O)c1 [compound 208703]	-18	2	16	9	–
CCSc1cnn(-c2ccccc2)c(=O)c1Cl [compound 103997]	98	-15	2	9	–
O=C(Nc1ccc(N2CCN(Cc3ccccc3Cl)CC2)cc1)c1ccco1 [compound 92553]	–	–	–	–	inhibition at 10 µM (H1975; [1]): -3%; inhibition at 10 µM (H1650; [2]): 2%; inhibition at 10 µM (H3255; [3]): 1%; inhibition at 10 µM (H2030; [4]): 5%
CCOC(=O)NCCOc1cnn(-c2ccccc2)c(=O)c1Cl [compound 201622]	-23	5	33	4	–

SMILES	inhibition at 10 µM (H1975; [5]) [%]	inhibition at 10 µM (H1650; [6]) [%]	inhibition at 10 µM (H3255; [7]) [%]	inhibition at 10 µM (H2030; [8]) [%]	also measured
COc1c(Cl)cnn(-c2ccc(Cl)c(C(F)(F)F)c2)c1=O [compound 174405]	28	13	32	-9	–
O=c1c(SCc2ccc(Cl)cc2)c(SCc2ccccc2)cnn1-c1ccccc1 [compound 208704]	-6	-10	-23	-15	–
Cc1cc(-n2ccc3c(C#N)c(=O)n(-c4ccccc4)nc3c2=O)[nH]n1 [compound 216994]	1	1	-3	4	–
CCOC(=O)N(CCOc1cnn(-c2ccccc2)c(=O)c1)C(=O)OCC [compound 199761]	-25	-7	41	6	–
O=c1c(Cl)c(N2CCCC2)cnn1-c1ccccc1 [compound 103868]	-18	-7	-3	-4	–
O=C(Nc1ccccc1C(=O)NCc1ccc(Cl)cc1)c1ccco1 [compound 88935]	–	–	–	–	inhibition at 10 µM (H1975; [1]): -10%; inhibition at 10 µM (H1650; [2]): -4%; inhibition at 10 µM (H3255; [3]): -2%; inhibition at 10 µM (H2030; [4]): -1%
O=c1cc(N2CCOCC2)cnn1-c1ccccc1 [compound 195066]	-3	8	-9	9	–
O=c1ccc(O)nn1-c1ccccc1 [compound 189286]	9	0	-15	5	–
Cc1cc([N+](=O)[O-])ccc1NC(=O)c1ccco1 [compound 79434]	–	–	–	–	inhibition at 10 µM (H1975; [1]): -7%; inhibition at 10 µM (H1650; [2]): 4%; inhibition at 10 µM (H3255; [3]): 4%; inhibition at 10 µM (H2030; [4]): 0%
O=C(Nc1ccc(NC(=O)c2ccc(Cl)cc2Cl)cc1)c1ccco1 [compound 72456]	–	–	–	–	inhibition at 10 µM (H1975; [1]): 9%; inhibition at 10 µM (H1650; [2]): 12%; inhibition at 10 µM (H3255; [3]): 7%; inhibition at 10 µM (H2030; [4]): 8%
Cc1c(Oc2ccccc2)nnn1-c1cnn(-c2ccccc2)c(=O)c1Br [compound 223337]	5	13	61	-14	–
O=c1c(Sc2ccccc2)c(Sc2ccccc2)cnn1-c1ccccc1 [compound 195070]	9	8	-73	-7	–
CCCCSc1cnn(-c2ccccc2)c(=O)c1SCc1ccccc1 [compound 208696]	-19	-2	37	4	–
Cc1ccccc1-n1ncc(SCc2ccccc2)c(Cl)c1=O [compound 224765]	1	7	-12	-15	–
O=c1c(Sc2ccc(Cl)cc2)cc(Cl)nn1-c1ccccc1 [compound 177261]	16	14	8	-8	–
Cc1cccnc1NC(=O)c1ccc([N+](=O)[O-])o1 [compound 108321]	–	–	–	–	PRIMARY HTS [%] H1975 (percentage inhibition) (H1975; H1975): −7%; PRIMARY HTS [%] H1650 (percentage inhibition) (H1650; H1650): 38%; PRIMARY HTS [%] H3255 (percentage inhibition) (H3255; H3255): 2%; PRIMARY HTS [%] H2030 (percentage inhibition) (H2030; H2030): 6%
O=c1ccc(Cl)nn1-c1ccccc1 [compound 195149]	11	-4	-19	-5	–
O=C(Nc1ccc(Cl)cc1F)c1ccco1 [compound 66598]	–	–	–	–	inhibition at 10 µM (H1975; [1]): 8%; inhibition at 10 µM (H1650; [2]): 8%; inhibition at 10 µM (H3255; [3]): 1%; inhibition at 10 µM (H2030; [4]): 0%
COc1cnn(-c2ccccc2)c(=O)c1Cl [compound 104386]	-11	-12	0	6	–
O=c1c(Cl)c(Cl)cnn1-c1cccc(Cl)c1 [compound 104188]	102	-13	4	-4	–
Cc1c(C(=O)c2ccccc2)nn(-c2ccccc2Cl)c(=N)c1C#N [compound 227247]	-9	-16	11	-1	–
